ChEMBL document CHEMBL4145686, “Discovery of a Potent and Selective Steroidal Glucocorticoid Receptor Antagonist (ORIC-101)” (J Med Chem, 2018)

What was measured:
[1] = biological target: T1, Glucocorticoid receptor (Sus scrofa) (UniProt Q9N1U3); assay: (§1) Antagonist activity at GR in mini pig PBMC assessed as reduction in dexamethasone-induced GILZ gene expression incubated for 24 hrs by RT-qPCR method; assay type: cell-based
T1 sequence (whole entry): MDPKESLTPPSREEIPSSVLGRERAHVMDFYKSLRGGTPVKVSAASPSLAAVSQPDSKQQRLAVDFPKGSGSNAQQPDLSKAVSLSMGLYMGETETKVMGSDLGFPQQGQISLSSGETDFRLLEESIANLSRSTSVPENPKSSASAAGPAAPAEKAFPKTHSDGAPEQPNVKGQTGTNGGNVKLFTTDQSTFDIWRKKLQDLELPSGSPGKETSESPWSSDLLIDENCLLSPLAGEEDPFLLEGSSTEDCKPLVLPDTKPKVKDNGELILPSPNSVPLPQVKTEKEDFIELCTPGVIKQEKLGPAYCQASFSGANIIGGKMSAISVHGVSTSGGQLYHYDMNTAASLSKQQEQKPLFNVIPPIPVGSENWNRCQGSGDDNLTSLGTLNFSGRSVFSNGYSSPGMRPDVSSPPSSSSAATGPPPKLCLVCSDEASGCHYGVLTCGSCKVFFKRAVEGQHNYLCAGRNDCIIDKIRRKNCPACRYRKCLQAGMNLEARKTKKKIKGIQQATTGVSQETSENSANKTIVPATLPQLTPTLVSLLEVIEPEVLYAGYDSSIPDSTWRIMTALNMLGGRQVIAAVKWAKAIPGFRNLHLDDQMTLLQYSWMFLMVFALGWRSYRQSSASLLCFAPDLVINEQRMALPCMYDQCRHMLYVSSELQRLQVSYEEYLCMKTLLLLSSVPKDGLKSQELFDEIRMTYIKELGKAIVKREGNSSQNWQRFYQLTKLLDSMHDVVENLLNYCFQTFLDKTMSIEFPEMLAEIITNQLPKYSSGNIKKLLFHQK

Glucocorticoid receptor [2] = biological target: T2, Glucocorticoid receptor (Sus scrofa, UniProt Q9N1U3); assay: as §1; assay type: cell-based
T2 sequence (Q9N1U3 whole entry): T1 sequence (whole entry)

Glucocorticoid receptor [3] = biological target: T3, Glucocorticoid receptor (Canis lupus familiaris, UniProt A0A8C0QLS2); assay: Antagonist activity at GR in dog PBMC assessed as reduction in dexamethasone-induced FKBP5 gene expression incubated for 6 hrs by RT-qPCR method; assay type: cell-based
T3 sequence (A0A8C0QLS2 whole entry): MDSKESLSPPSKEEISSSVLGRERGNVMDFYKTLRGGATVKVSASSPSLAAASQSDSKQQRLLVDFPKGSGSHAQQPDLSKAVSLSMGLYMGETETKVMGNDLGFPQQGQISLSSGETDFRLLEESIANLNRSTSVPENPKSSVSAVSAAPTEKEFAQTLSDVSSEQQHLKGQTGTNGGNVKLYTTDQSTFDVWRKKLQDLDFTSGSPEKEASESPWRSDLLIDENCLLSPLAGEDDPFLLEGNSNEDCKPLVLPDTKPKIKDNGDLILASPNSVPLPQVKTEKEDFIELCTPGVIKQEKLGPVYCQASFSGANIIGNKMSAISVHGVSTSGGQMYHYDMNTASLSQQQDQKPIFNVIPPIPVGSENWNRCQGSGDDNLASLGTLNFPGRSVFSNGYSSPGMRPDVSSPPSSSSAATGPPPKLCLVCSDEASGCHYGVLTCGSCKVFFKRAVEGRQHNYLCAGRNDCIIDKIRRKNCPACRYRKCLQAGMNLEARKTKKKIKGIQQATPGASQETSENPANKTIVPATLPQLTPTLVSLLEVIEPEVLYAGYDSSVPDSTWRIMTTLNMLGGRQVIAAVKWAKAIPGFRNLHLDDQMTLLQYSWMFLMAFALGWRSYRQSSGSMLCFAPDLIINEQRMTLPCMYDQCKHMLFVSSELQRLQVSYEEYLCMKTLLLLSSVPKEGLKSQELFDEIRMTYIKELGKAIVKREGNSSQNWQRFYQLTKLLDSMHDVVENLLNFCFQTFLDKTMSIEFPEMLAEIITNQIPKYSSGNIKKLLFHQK

[4] = Oral bioavailability in mini pig at 10 mg/kg; assay type: ADME, organism-based, Sus scrofa; settings: in vivo
[5] = biological target: T4, Mineralocorticoid receptor (Homo sapiens, UniProt P08235); assay: Agonist activity at human MR expressed in CHO-K1 cells assessed as increase in protein interaction between MR and its coactivator SRC at 5 uM incubated for 24 hrs by beta-galactosidase based chemiluminescence assay; assay type: cell-based; settings: cho-k1, 24 h
T4 sequence (P08235 whole entry): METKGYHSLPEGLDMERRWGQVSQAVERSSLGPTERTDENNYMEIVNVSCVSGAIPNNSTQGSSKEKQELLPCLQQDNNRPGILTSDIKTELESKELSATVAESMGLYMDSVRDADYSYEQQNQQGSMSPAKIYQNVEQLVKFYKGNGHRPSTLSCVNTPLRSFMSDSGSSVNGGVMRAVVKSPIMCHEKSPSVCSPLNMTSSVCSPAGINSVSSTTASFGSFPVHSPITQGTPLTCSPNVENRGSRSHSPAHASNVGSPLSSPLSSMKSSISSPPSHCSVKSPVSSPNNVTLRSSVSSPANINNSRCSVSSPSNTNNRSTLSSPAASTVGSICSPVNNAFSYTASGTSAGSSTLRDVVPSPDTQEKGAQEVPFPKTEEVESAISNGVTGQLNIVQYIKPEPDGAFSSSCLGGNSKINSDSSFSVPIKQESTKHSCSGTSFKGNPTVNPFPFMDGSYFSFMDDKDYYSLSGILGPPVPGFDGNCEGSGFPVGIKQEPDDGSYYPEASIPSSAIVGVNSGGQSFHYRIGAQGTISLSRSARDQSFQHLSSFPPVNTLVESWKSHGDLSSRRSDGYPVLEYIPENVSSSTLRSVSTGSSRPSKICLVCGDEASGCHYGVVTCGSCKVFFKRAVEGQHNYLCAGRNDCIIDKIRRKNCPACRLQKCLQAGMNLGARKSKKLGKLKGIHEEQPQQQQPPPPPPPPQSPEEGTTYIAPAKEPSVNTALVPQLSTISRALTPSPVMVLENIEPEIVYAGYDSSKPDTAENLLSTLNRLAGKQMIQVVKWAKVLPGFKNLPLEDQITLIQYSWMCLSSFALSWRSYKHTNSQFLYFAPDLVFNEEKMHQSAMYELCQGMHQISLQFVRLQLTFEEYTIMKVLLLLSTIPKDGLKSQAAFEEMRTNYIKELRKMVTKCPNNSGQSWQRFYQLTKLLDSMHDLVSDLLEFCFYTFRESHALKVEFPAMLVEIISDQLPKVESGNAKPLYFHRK

[6] = Cmax in mini pig at 10 mg/kg, po; assay type: ADME, organism-based, Sus scrofa; set-up: dose 10 mg/kg, route oral; settings: in vivo

CC(C)N(C)c1ccc([C@H]2C[C@@]3(C)[C@@H](CC[C@@]3(O)C#CC(C)(C)C)[C@@H]3CCC4=CC(=O)CC[C@@H]4[C@H]32)cc1
inhibition [1]: Dose-dependent effect
IC50 (Glucocorticoid receptor [2]): 181 nM
IC50 (Glucocorticoid receptor [3]): 24.5 nM
bioavailability [4]: 20%
Activity [5]: Not Active
Cmax [6]: 153 ng/mL
